This assay deals with T1, recombinant guanylate cyclase reporter cell line (Rattus norvegicus, UniProt P20595).
T1 construct: expressed in transfected cells
T1 sequence (P20595 1-619): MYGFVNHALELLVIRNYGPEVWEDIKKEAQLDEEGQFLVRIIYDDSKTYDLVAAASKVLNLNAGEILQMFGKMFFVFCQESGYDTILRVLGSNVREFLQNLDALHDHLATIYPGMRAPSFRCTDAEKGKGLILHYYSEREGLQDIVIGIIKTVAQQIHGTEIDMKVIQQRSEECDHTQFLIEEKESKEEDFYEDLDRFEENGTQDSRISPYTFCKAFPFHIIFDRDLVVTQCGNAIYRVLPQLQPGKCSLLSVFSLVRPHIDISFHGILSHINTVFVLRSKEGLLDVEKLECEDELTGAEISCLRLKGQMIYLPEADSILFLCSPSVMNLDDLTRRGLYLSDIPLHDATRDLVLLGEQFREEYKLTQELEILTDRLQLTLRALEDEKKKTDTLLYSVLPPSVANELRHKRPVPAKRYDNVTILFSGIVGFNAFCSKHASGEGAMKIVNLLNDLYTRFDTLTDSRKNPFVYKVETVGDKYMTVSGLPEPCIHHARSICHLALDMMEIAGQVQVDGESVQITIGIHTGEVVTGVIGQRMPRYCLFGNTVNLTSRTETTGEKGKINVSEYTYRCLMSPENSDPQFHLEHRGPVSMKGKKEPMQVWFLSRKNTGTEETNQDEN
T1 sequence (P19686 1-690 partner): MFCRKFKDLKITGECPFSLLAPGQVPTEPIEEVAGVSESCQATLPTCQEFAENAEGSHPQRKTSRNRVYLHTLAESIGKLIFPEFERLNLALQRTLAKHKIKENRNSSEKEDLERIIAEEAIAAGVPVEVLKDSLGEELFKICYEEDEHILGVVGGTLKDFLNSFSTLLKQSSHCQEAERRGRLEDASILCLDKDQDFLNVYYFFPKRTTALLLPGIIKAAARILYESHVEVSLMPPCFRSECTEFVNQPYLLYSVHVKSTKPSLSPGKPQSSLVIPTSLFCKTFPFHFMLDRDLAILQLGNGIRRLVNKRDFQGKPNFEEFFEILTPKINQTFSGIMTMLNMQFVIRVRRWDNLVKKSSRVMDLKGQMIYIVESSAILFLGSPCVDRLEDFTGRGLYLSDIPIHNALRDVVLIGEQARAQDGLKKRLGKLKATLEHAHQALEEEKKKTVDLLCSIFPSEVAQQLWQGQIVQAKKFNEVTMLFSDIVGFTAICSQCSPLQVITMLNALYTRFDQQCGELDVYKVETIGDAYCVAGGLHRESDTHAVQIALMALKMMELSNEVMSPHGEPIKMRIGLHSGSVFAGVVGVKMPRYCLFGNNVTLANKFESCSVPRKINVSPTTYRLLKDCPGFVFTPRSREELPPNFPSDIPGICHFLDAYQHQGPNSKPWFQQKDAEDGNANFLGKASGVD
Nature of the assay: Effect on a recombinant guanylate cyclase reporter cell line. The format is cell-based. As to conditions: in some cases mean values from individual determinations; for MEC: MEC = minimum effective concentration; for pEC50: half maximal effective concentration. Here is the method:
The cellular activity of the compounds according to the invention was determined using a recombinant guanylate cyclase reporter cell line, as described in F. Wunder et al., Anal. Biochem. 339, 104-112 (2005).

pEC50: −log10 of the molar value. Structures can show the parent of a compound that is named as a salt. A value given as a limit tells only on which side of the number the result lay.

In general, pEC50 refers to the EC50 on a negative log10 scale, so that one unit is a factor of ten. With `O=C(O)c1cnn(C2CCCN(c3cc(Cl)ccc3-c3ccc(N4CCN(CC5CC5)CC4)cc3F)C2)c1C(F)(F)F` (single isomer, unassigned) [Example 69, 1-[1-[5-Chloro-2-[4-[4-(cyclopropylmethyl)piperazin-1-yl]-2-fluoro-phenyl]phenyl]-3-piperidyl]-5-(trifluoromethyl)pyrazole-4-carboxylic acid hydrochloride], the MEC is 3.0 nM and the negative logarithm of the EC50 (pEC50) was 7.86.
Turning to `CCN1CCN(c2ccc(-c3ccc(Cl)cc3N3CCCC(n4ncc(C(=O)O)c4C(F)(F)F)C3)cc2F)CC1` (single isomer, unassigned) [Example 70, 1-[1-[5-Chloro-2-[4-(4-ethylpiperazin-1-yl)-3-fluoro-phenyl]phenyl]-3-piperidyl]-5-(trifluoromethyl)pyrazole-4-carboxylic acid], the MEC is 30.0 nM and the negative logarithm of the EC50 (pEC50) is 7.00.
The corresponding values for `O=C(O)c1cnn(C2CCCN(c3cc(Cl)ccc3-c3ccc(N4CCN(CC5CC5)CC4)c(F)c3)C2)c1C(F)(F)F` (single isomer, unassigned) [Example 71, 1-[1-[5-Chloro-2-[4-[4-(cyclopropylmethyl)piperazin-1-yl]-3-fluoro-phenyl]phenyl]-3-piperidyl]-5-(trifluoromethyl)pyrazole-4-carboxylic acid hydrochloride] are 10.0 nM and 7.16.
As for `CN1CCN(c2ccc(-c3ccc(Cl)cc3N3CCCC(n4ncc(C(=O)O)c4C(F)(F)F)C3)c(Cl)c2)CC1` (single isomer, unassigned) [Example 72, 1-[1-[5-Chloro-2-[2-chloro-4-(4-methylpiperazin-1-yl)phenyl]phenyl]-3-piperidyl]-5-(trifluoromethyl)pyrazole-4-carboxylic acid formic acid adduct], the MEC worked out at 10.0 nM and the pEC50 was 7.19.
In the same order, the values of `CCN1CCN(c2ccc(-c3ccc(Cl)cc3N3CCCC(n4ncc(C(=O)O)c4C(F)(F)F)C3)c(C)c2)CC1` (single isomer, unassigned) [Example 73, 1-[1-[5-Chloro-2-[4-(4-ethylpiperazin-1-yl)-2-methyl-phenyl]phenyl]-3-piperidyl]-5-(trifluoromethyl)pyrazole-4-carboxylic acid hydrochloride] are 30.0 nM and 7.24.
For the molecule `O=C(O)c1cnn(C2CCCN(c3cc(Cl)ccc3-c3ccc(N4CCN(CC(F)(F)F)CC4)nc3)C2)c1C(F)(F)F` (single isomer, unassigned) [Example 74, 1-[1-[5-Chloro-2-[6-[4-(2,2,2-trifluoroethyl)piperazin-1-yl]-3-pyridyl]phenyl]-3-piperidyl]-5-(trifluoromethyl)pyrazole-4-carboxylic acid hydrochloride], the negative logarithm of the EC50 (pEC50) was 7.98. The MEC (hydrochloride) was determined as 1.0 nM.
With `O=C(O)c1cnn(C2CCCN(c3cc(Cl)ccc3-c3ccc(N4CCN(CC(F)(F)F)CC4)nc3)C2)c1C(F)(F)F` (single isomer, unassigned) [Example 75, 1-[1-[5-Chloro-2-[6-[4-(2,2,2-trifluoroethyl)piperazin-1-yl]-3-pyridyl]phenyl]-3-piperidyl]-5-(trifluoromethyl)pyrazole-4-carboxylic acid], the MEC worked out at 3.0 nM and the pEC50 is 7.80.
The corresponding values for `O=C(O)c1cnn(C2CCCN(c3cc(Cl)ccc3-c3ccc(N4CCN(CCC(F)(F)F)CC4)nc3)C2)c1C(F)(F)F` (single isomer, unassigned) [Example 76, 1-[1-[5-Chloro-2-[6-[4-(3,3,3-trifluoropropyl)piperazin-1-yl]-3-pyridyl]phenyl]-3-piperidyl]-5-(trifluoromethyl)pyrazole-4-carboxylic acid hydrochloride] are 1.0 nM and 8.32.
In the same order, the values of `O=C(O)c1cnn(C2CCCN(c3cc(Cl)ccc3-c3ccc(N4CCN(CC(F)(F)F)CC4)nc3)C2)c1C(F)(F)F` (single isomer, unassigned) [Example 77, 1-[1-[5-Chloro-2-[6-[4-(2,2,2-trifluoroethyl)piperazin-1-yl]-3-pyridyl]phenyl]-3-piperidyl]-5-(trifluoromethyl)pyrazole-4-carboxylic acid] are 30.0 nM and 7.08.
`O=C(O)c1cnn(C2CCCN(c3cc(Cl)ccc3-c3ccc(C4CN(CCC(F)(F)F)C4)cc3)C2)c1C(F)(F)F` (single isomer, unassigned) [Example 78, 1-[1-[5-Chloro-2-[4-[1-(3,3,3-trifluoropropyl)azetidin-3-yl]phenyl]phenyl]-3-piperidyl]-5-(trifluoromethyl)pyrazole-4-carboxylic acid hydrochloride]: the MEC came out at 1.0 nM and the pEC50 was 7.88.
In the same order, the values of `O=C(O)c1cnn(C2CCCN(c3cc(Cl)ccc3-c3ccc(C4CC4)nc3)C2)c1C(F)(F)F` (single isomer, unassigned) [Example 79, 1-[1-[5-Chloro-2-(6-cyclopropyl-3-pyridyl)phenyl]-3-piperidyl]-5-(trifluoromethyl)pyrazole-4-carboxylic acid] are 1.0 nM and 8.44.
As for `O=C(O)c1cnn(C2CCCN(c3cc(Cl)ccc3-c3ccc4c(c3)CCN(CC(F)(F)F)C4)C2)c1C(F)(F)F` (single isomer, unassigned) [Example 80, 1-[1-[5-Chloro-2-[2-(2,2,2-trifluoroethyl)-3,4-dihydro-1H-isoquinolin-6-yl]phenyl]-3-piperidyl]-5-(trifluoromethyl)pyrazole-4-carboxylic acid], the MEC is listed as 10.0 nM and the negative logarithm of the EC50 (pEC50) was 7.07.
In the same order, the values of `CC(C)CN1CCc2cc(-c3ccc(Cl)cc3N3CCCC(n4ncc(C(=O)O)c4C(F)(F)F)C3)ccc2C1` (single isomer, unassigned) [Example 81, 1-[1-[5-Chloro-2-(2-isobutyl-3,4-dihydro-1H-isoquinolin-6-yl)phenyl]-3-piperidyl]-5-(trifluoromethyl)pyrazole-4-carboxylic acid hydrochloride] are 30.0 nM and 7.37.
The corresponding values for `CCC(=O)N1CCC(c2ccc(-c3ccc(Cl)cc3N3CCCC(n4ncc(C(=O)O)c4C(F)(F)F)C3)cc2)CC1` (single isomer, unassigned) [Example 82, 1-[1-[5-Chloro-2-[4-(1-propanoyl-4-piperidyl)phenyl]phenyl]-3-piperidyl]-5-(trifluoromethyl)pyrazole-4-carboxylic acid hydrochloride] are 0.3 nM and 8.41.
In the same order, the values of `CCC(=O)N1CCC(c2ccc(-c3ccc(Cl)cc3N3CCCC(n4ncc(C(=O)O)c4C(F)(F)F)C3)cc2)CC1` (single isomer, unassigned) [Example 83, 1-[1-[5-Chloro-2-[4-(1-propanoyl-4-piperidyl)phenyl]phenyl]-3-piperidyl]-5-(trifluoromethyl)pyrazole-4-carboxylic acid hydrochloride] are 0.3 nM and 8.41.
In the case of `O=C(O)c1cnn(C2CCCN(c3cc(Cl)ccc3-c3ccc(C4CCN(C(=O)C5CC5)CC4)cc3)C2)c1C(F)(F)F` (single isomer, unassigned) [Example 84, 1-[1-[5-Chloro-2-[4-[1-(cyclopropanecarbonyl)-4-piperidyl]phenyl]phenyl]-3-piperidyl]-5-(trifluoromethyl)pyrazole-4-carboxylic acid hydrochloride], the negative-log EC50 (pEC50) is 8.60. For the same molecule, the MEC (hydrochloride) was 0.3 nM.
With `O=C(O)c1cnn(C2CCCN(c3cc(Cl)ccc3-c3ccc(C4CCN(C(=O)C5CC5)CC4)cc3)C2)c1C(F)(F)F` (single isomer, unassigned) [Example 85, 1-[1-[5-Chloro-2-[4-[1-(cyclopropanecarbonyl)-4-piperidyl]phenyl]phenyl]-3-piperidyl]-5-(trifluoromethyl)pyrazole-4-carboxylic acid hydrochloride], the pEC50 was 8.96. The MEC (hydrochloride) is given as below 0.3 nM.
